Test system: 439559-082-T-J2-PDC complex spheroid growth
Assay: Anticancer human tumor 439559-082-T-J2-PDC patient-derived colon adenocarcinoma cell line growth inhibition [Asc]
Details: for IC50: curve of first compound; for viability, T/C: stronger effect = lower value
In short: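 Tumor cells were grown as multicellular spheroids with stromal HUVEC and mesenchymal stem cells and treated singly or in combination. Concentrations fell in half-log steps from the clinical Cmax, or from 10 microM where none was known.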

[1] = second compound 0.03 µM, first compound 0.0316 µM
[2] = second compound 0.03 µM, first compound 0.1 µM
[3] = second compound 0.03 µM, first compound 0.316 µM
[4] = second compound 0.03 µM, first compound 1 µM
[5] = second compound 0.0949 µM, first compound 0.0316 µM
[6] = second compound 0.0949 µM, first compound 0.1 µM
[7] = second compound 0.0949 µM, first compound 0.316 µM
[8] = second compound 0.0949 µM, first compound 1 µM
[9] = second compound 0.3 µM, first compound 0.0316 µM
[10] = second compound 0.3 µM, first compound 0.1 µM
[11] = second compound 0.3 µM, first compound 0.316 µM
[12] = second compound 0.3 µM, first compound 1 µM
[13] = second compound 0.949 µM, first compound 0.0316 µM
[14] = second compound 0.949 µM, first compound 0.1 µM
[15] = second compound 0.949 µM, first compound 0.316 µM
[16] = second compound 0.949 µM, first compound 1 µM
[17] = second compound 3 µM, first compound 0.0316 µM
[18] = second compound 3 µM, first compound 0.1 µM
[19] = second compound 3 µM, first compound 0.316 µM
[20] = second compound 3 µM, first compound 1 µM
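Note: spheroids exposed to agents for 7 days starting day 3 after seeding.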
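Throughout, for viability, T/C: percent of DMSO vehicle control viability with 100% = vehicle.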

Compound: CNC(C)C(=O)NC1CN(S(=O)(=O)c2cccc(S(=O)(=O)N3CCC4CCC(C(=O)NC(c5ccccc5)c5ccccc5)N4C(=O)C(NC(=O)C(C)NC)C3)c2)CCC2CCC(C(=O)NC(c3ccccc3)c3ccccc3)N2C1=O (stereo not given) + CCN1C(C(=O)NC23CCC(C(=O)O)(CC2)CC3)C(c2cccc(Cl)c2F)C2(C(=O)Nc3cc(Cl)ccc32)C12CCCCC2
- IC50 (second compound 0.03 µM): > 1000 nM
- IC50 (second compound 0.0949 µM): > 1000 nM
- IC50 (second compound 0.3 µM): > 1000 nM
- IC50 (second compound 0.949 µM): > 1000 nM
- IC50 (second compound 3 µM): > 1000 nM
- viability, T/C (second compound 0.03 µM, first compound 0.00316 µM): 104%
- viability, T/C (second compound 0.03 µM, first compound 0.01 µM): 110%
- viability, T/C [1]: 109%
- viability, T/C [2]: 95.5%
- viability, T/C [3]: 102%
- viability, T/C [4]: 88%
- viability, T/C (second compound 0.0949 µM, first compound 0.00316 µM): 109%
- viability, T/C (second compound 0.0949 µM, first compound 0.01 µM): 110%
- viability, T/C [5]: 106%
- viability, T/C [6]: 96.8%
- viability, T/C [7]: 93%
- viability, T/C [8]: 84.6%
- viability, T/C (second compound 0.3 µM, first compound 0.00316 µM): 109%
- viability, T/C (second compound 0.3 µM, first compound 0.01 µM): 105%
- viability, T/C [9]: 113%
- viability, T/C [10]: 94.8%
- viability, T/C [11]: 84.7%
- viability, T/C [12]: 82.5%
- viability, T/C (second compound 0.949 µM, first compound 0.00316 µM): 103%
- viability, T/C (second compound 0.949 µM, first compound 0.01 µM): 113%
- viability, T/C [13]: 126%
- viability, T/C [14]: 101%
- viability, T/C [15]: 92.8%
- viability, T/C [16]: 91.5%
- viability, T/C (second compound 3 µM, first compound 0.00316 µM): 99.1%
- viability, T/C (second compound 3 µM, first compound 0.01 µM): 102%
- viability, T/C [17]: 109%
- viability, T/C [18]: 93.1%
- viability, T/C [19]: 75%
- viability, T/C [20]: 77.7%

Compound: COc1c(OCCCN2CCOCC2)ccc2c3n(c(=NC(=O)c4cnc(N)nc4)nc12)CCN3 + Cc1c(S(C)(=O)=O)c(-c2cc(F)cc(N3CCN(c4ccc(NS(=O)(=O)c5ccc(NC(CCN6CCC(C(=O)OCCCP(=O)(O)O)CC6)CSc6ccccc6)c(S(=O)(=O)C(F)(F)F)c5)cc4)CC3)c2)c(-c2ccc(Cl)cc2)n1C(C)C
- IC50 (second compound 0.1 µM): > 1000 nM
- IC50 (second compound 0.316 µM): > 1000 nM
- IC50 (second compound 1 µM): > 1000 nM
- IC50 (second compound 3.16 µM): 312 nM
- IC50 (second compound 10 µM): 101 nM
- viability, T/C (second compound 0.1 µM, first compound 0.00316 µM): 97.8%
- viability, T/C (second compound 0.1 µM, first compound 0.01 µM): 98.6%
- viability, T/C (second compound 0.1 µM, first compound 0.0316 µM): 85.8%
- viability, T/C (second compound 0.1 µM, first compound 0.1 µM): 63.8%
- viability, T/C (second compound 0.1 µM, first compound 0.316 µM): 67.1%
- viability, T/C (second compound 0.1 µM, first compound 1 µM): 55%
- viability, T/C (second compound 0.316 µM, first compound 0.00316 µM): 95.9%
- viability, T/C (second compound 0.316 µM, first compound 0.01 µM): 97.9%
- viability, T/C (second compound 0.316 µM, first compound 0.0316 µM): 90.8%
- viability, T/C (second compound 0.316 µM, first compound 0.1 µM): 63.4%
- viability, T/C (second compound 0.316 µM, first compound 0.316 µM): 62%
- viability, T/C (second compound 0.316 µM, first compound 1 µM): 54.1%
- viability, T/C (second compound 1 µM, first compound 0.00316 µM): 90.2%
- viability, T/C (second compound 1 µM, first compound 0.01 µM): 89.7%
- viability, T/C (second compound 1 µM, first compound 0.0316 µM): 82.6%
- viability, T/C (second compound 1 µM, first compound 0.1 µM): 64.6%
- viability, T/C (second compound 1 µM, first compound 0.316 µM): 59%
- viability, T/C (second compound 1 µM, first compound 1 µM): 49.7%
- viability, T/C (second compound 3.16 µM, first compound 0.00316 µM): 85.6%
- viability, T/C (second compound 3.16 µM, first compound 0.01 µM): 84.8%
- viability, T/C (second compound 3.16 µM, first compound 0.0316 µM): 79.9%
- viability, T/C (second compound 3.16 µM, first compound 0.1 µM): 59.5%
- viability, T/C (second compound 3.16 µM, first compound 0.316 µM): 50.8%
- viability, T/C (second compound 3.16 µM, first compound 1 µM): 48%
- viability, T/C (second compound 10 µM, first compound 0.00316 µM): 69%
- viability, T/C (second compound 10 µM, first compound 0.01 µM): 84.7%
- viability, T/C (second compound 10 µM, first compound 0.0316 µM): 72%
- viability, T/C (second compound 10 µM, first compound 0.1 µM): 50.4%
- viability, T/C (second compound 10 µM, first compound 0.316 µM): 36.9%
- viability, T/C (second compound 10 µM, first compound 1 µM): 37.2%

Compound: C=C(F)C(=O)N1CCN(c2nc(OCC3CCCN3C)nc3c2CCN(c2cccc4cccc(Cl)c24)C3)CC1CC#N (stereo not given) + CCN1C(C(=O)NC23CCC(C(=O)O)(CC2)CC3)C(c2cccc(Cl)c2F)C2(C(=O)Nc3cc(Cl)ccc32)C12CCCCC2
- IC50 (second compound 0.03 µM): 6630 nM
- IC50 (second compound 0.0949 µM): 5800 nM
- IC50 (second compound 0.3 µM): 6300 nM
- IC50 (second compound 0.949 µM): 6350 nM
- IC50 (second compound 3 µM): 5120 nM
- viability, T/C [1]: 102%
- viability, T/C [2]: 96.2%
- viability, T/C [3]: 116%
- viability, T/C [4]: 93%
- viability, T/C (second compound 0.03 µM, first compound 3.16 µM): 92.1%
- viability, T/C (second compound 0.03 µM, first compound 10 µM): 27%
- viability, T/C [5]: 109%
- viability, T/C [6]: 112%
- viability, T/C [7]: 107%
- viability, T/C [8]: 96.7%
- viability, T/C (second compound 0.0949 µM, first compound 3.16 µM): 82.8%
- viability, T/C (second compound 0.0949 µM, first compound 10 µM): 22.3%
- viability, T/C [9]: 92%
- viability, T/C [10]: 113%
- viability, T/C [11]: 103%
- viability, T/C [12]: 90.5%
- viability, T/C (second compound 0.3 µM, first compound 3.16 µM): 85%
- viability, T/C (second compound 0.3 µM, first compound 10 µM): 27.5%
- viability, T/C [13]: 104%
- viability, T/C [14]: 103%
- viability, T/C [15]: 105%
- viability, T/C [16]: 98.2%
- viability, T/C (second compound 0.949 µM, first compound 3.16 µM): 85.7%
- viability, T/C (second compound 0.949 µM, first compound 10 µM): 26.7%
- viability, T/C [17]: 88.3%
- viability, T/C [18]: 102%
- viability, T/C [19]: 96.3%
- viability, T/C [20]: 84.5%
- viability, T/C (second compound 3 µM, first compound 3.16 µM): 80.2%
- viability, T/C (second compound 3 µM, first compound 10 µM): 10.2%

From PubChem BioAssay AID1963423 (Molecular Pharmacology Branch, DTP, NCI, 2024)
